Test results as given in ChEMBL document CHEMBL5375962 (J Med Chem, 2023).
In brackets after ≈: the same amount, converted by molar mass.

tested on: Hepatocyte; assay: Cytotoxicity against rat Primary hepatocyte; format: toxicity, cell-based; details: hepatocytes

SMILES	LC20
OC[C@H]1CCN1c1nc(-c2cnn(C3CNC3)c2)cc(C(F)(F)F)n1	> 50000 nM
C[C@H]1CCN1c1nc(-c2cnn(CC(=O)N(CCO)CCO)c2)cc(C(F)(F)F)c1C#N	> 50000 nM

tested on: not listed separately; assay: Inhibition of mouse KHK-A; details: not given

IC50	SMILES
108 nM	OC[C@H]1CCN1c1nc(-c2cnn(C3CNC3)c2)cc(C(F)(F)F)n1
16 nM	C[C@H]1CCN1c1nc(-c2cnn(CC(=O)N(CCO)CCO)c2)cc(C(F)(F)F)c1C#N

tested on: not listed separately; assay: Permeability in MDCK cells assessed as drug transport measured over 1 hr in presence of P-gp; format: ADME, cell-based, Canis lupus familiaris; details: dog

Drug transport	SMILES
2.2%	OC[C@H]1CCN1c1nc(-c2cnn(C3CNC3)c2)cc(C(F)(F)F)n1
2%	C[C@H]1CCN1c1nc(-c2cnn(CC(=O)N(CCO)CCO)c2)cc(C(F)(F)F)c1C#N

tested on: not listed separately; assay: Cmax in dog at 1 mg/kg, iv; format: ADME, organism-based, Canis lupus familiaris; parameters: dose 1 mg/kg, route iv; details: in vivo

Cmax	SMILES
2730 nM	OC[C@H]1CCN1c1nc(-c2cnn(C3CNC3)c2)cc(C(F)(F)F)n1

tested on: not listed separately; assay: Clearance in dog hepatocytes measured per 10^6 cells; format: ADME, cell-based, Canis lupus familiaris, Hepatocyte; details: read-out: CLH

hepatocyte CLint	SMILES
2 µL/min/1e6 cells	OC[C@H]1CCN1c1nc(-c2cnn(C3CNC3)c2)cc(C(F)(F)F)n1
2.6 µL/min/1e6 cells	C[C@H]1CCN1c1nc(-c2cnn(CC(=O)N(CCO)CCO)c2)cc(C(F)(F)F)c1C#N

tested on: not listed separately; assay: Half life in dog at 1 mg/kg, iv; format: ADME, organism-based, Canis lupus familiaris; details: in vivo

half-life	SMILES
3.7 h	OC[C@H]1CCN1c1nc(-c2cnn(C3CNC3)c2)cc(C(F)(F)F)n1

tested on: not listed separately; assay: Clearance in dog at 1 mg/kg, iv; format: ADME, organism-based, Canis lupus familiaris; details: in vivo

clearance	SMILES
37 mL/min/kg	OC[C@H]1CCN1c1nc(-c2cnn(C3CNC3)c2)cc(C(F)(F)F)n1

tested on: not listed separately; assay: AUC in rat at 1 mg/kg, iv measured after 12 hrs; format: ADME, organism-based; parameters: time 12 hrs, dose 1 mg/kg, route iv; details: in vivo

AUC at 12 h	SMILES
0.531 µM·h	OC[C@H]1CCN1c1nc(-c2cnn(C3CNC3)c2)cc(C(F)(F)F)n1
1.59 µM·h	C[C@H]1CCN1c1nc(-c2cnn(CC(=O)N(CCO)CCO)c2)cc(C(F)(F)F)c1C#N

tested on: not listed separately; assay: AUC in dog at 1 mg/kg, iv; format: ADME, organism-based, Canis lupus familiaris; parameters: dose 1 mg/kg, route iv; details: in vivo

AUC	SMILES
1.31 µM·h	OC[C@H]1CCN1c1nc(-c2cnn(C3CNC3)c2)cc(C(F)(F)F)n1

tested on: not listed separately; assay: Half life in rat at 1 mg/kg, iv measured after 12 hrs; format: ADME, organism-based; details: in vivo

half-life	SMILES
0.7 h	OC[C@H]1CCN1c1nc(-c2cnn(C3CNC3)c2)cc(C(F)(F)F)n1
2.4 h	C[C@H]1CCN1c1nc(-c2cnn(CC(=O)N(CCO)CCO)c2)cc(C(F)(F)F)c1C#N

tested on: not listed separately; assay: Clearance in rat hepatocytes measured per 10^6 cells; format: ADME, cell-based, Hepatocyte; details: read-out: CLH

hepatocyte CLint	SMILES
10 µL/min/1e6 cells	OC[C@H]1CCN1c1nc(-c2cnn(C3CNC3)c2)cc(C(F)(F)F)n1
6.1 µL/min/1e6 cells	C[C@H]1CCN1c1nc(-c2cnn(CC(=O)N(CCO)CCO)c2)cc(C(F)(F)F)c1C#N

biological target: T1, Ketohexokinase (Homo sapiens, UniProt P50053); assay: Inhibition of KHK in human HepG2 cells incubated for 3 hrs by Rapidfire MS analysis; format: cell-based; details: not given
T1 sequence (P50053 whole entry): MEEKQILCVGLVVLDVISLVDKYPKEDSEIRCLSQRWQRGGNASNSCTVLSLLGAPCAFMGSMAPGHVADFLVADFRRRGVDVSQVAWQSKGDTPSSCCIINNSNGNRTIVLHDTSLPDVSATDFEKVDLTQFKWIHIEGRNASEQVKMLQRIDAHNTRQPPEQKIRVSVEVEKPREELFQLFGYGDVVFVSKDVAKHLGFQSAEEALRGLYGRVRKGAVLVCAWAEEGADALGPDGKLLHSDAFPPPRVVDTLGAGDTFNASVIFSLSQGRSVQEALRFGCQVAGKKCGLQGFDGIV

IC50	SMILES
40 nM	OC[C@H]1CCN1c1nc(-c2cnn(C3CNC3)c2)cc(C(F)(F)F)n1
102 nM	C[C@H]1CCN1c1nc(-c2cnn(CC(=O)N(CCO)CCO)c2)cc(C(F)(F)F)c1C#N

tested on: not listed separately; assay: Volume of distribution in rat at 1 mg/kg, iv measured after 12 hrs; format: ADME, organism-based; details: in vivo

Vd	SMILES
3.4 L/kg	OC[C@H]1CCN1c1nc(-c2cnn(C3CNC3)c2)cc(C(F)(F)F)n1
4.8 L/kg	C[C@H]1CCN1c1nc(-c2cnn(CC(=O)N(CCO)CCO)c2)cc(C(F)(F)F)c1C#N

tested on: not listed separately; assay: Volume of distribution in dog at 1 mg/kg, iv; format: ADME, organism-based, Canis lupus familiaris; details: in vivo

Vd	SMILES
5.2 L/kg	OC[C@H]1CCN1c1nc(-c2cnn(C3CNC3)c2)cc(C(F)(F)F)n1

tested on: not listed separately; assay: Metabolic stability in human liver microsomes assessed as compound degradation measured after 30 mins; format: ADME, Microsome; details: read-out: Drug degradation

metabolised at 0.5 h	SMILES
4%	OC[C@H]1CCN1c1nc(-c2cnn(C3CNC3)c2)cc(C(F)(F)F)n1
27%	C[C@H]1CCN1c1nc(-c2cnn(CC(=O)N(CCO)CCO)c2)cc(C(F)(F)F)c1C#N

tested on: not listed separately; assay: Thermodynamic solubility of the compound […] at pH 7.4; format: physicochemical; details: read-out: Therm_solubility

solubility thermodynamic	SMILES
690 µg/mL (≈ 1950 µM)	OC[C@H]1CCN1c1nc(-c2cnn(C3CNC3)c2)cc(C(F)(F)F)n1
28 µg/mL (≈ 61.9 µM)	C[C@H]1CCN1c1nc(-c2cnn(CC(=O)N(CCO)CCO)c2)cc(C(F)(F)F)c1C#N

tested on: not listed separately; assay: Metabolic stability in rat liver microsomes assessed as compound degradation measured after 30 mins; format: ADME, Microsome; details: read-out: Drug degradation

metabolised at 0.5 h	SMILES
0%	OC[C@H]1CCN1c1nc(-c2cnn(C3CNC3)c2)cc(C(F)(F)F)n1
9%	C[C@H]1CCN1c1nc(-c2cnn(CC(=O)N(CCO)CCO)c2)cc(C(F)(F)F)c1C#N

tested on: not listed separately; assay: Metabolic stability in mouse liver microsomes assessed as compound degradation measured after 30 mins; format: ADME, Microsome; details: read-out: Drug degradation

metabolised at 0.5 h	SMILES
20%	OC[C@H]1CCN1c1nc(-c2cnn(C3CNC3)c2)cc(C(F)(F)F)n1
30%	C[C@H]1CCN1c1nc(-c2cnn(CC(=O)N(CCO)CCO)c2)cc(C(F)(F)F)c1C#N

tested on: not listed separately; assay: Clearance in human hepatocytes measured per 10^6 cells; format: ADME, cell-based, Hepatocyte; details: read-out: CLH

hepatocyte CLint	SMILES
< 1.8 µL/min/1e6 cells	OC[C@H]1CCN1c1nc(-c2cnn(C3CNC3)c2)cc(C(F)(F)F)n1
43 µL/min/1e6 cells	C[C@H]1CCN1c1nc(-c2cnn(CC(=O)N(CCO)CCO)c2)cc(C(F)(F)F)c1C#N

tested on: not listed separately; assay: Clearance in rat at 1 mg/kg, iv measured after 12 hrs; format: ADME, organism-based; details: in vivo

clearance	SMILES
90 mL/min/kg	OC[C@H]1CCN1c1nc(-c2cnn(C3CNC3)c2)cc(C(F)(F)F)n1
23 mL/min/kg	C[C@H]1CCN1c1nc(-c2cnn(CC(=O)N(CCO)CCO)c2)cc(C(F)(F)F)c1C#N

tested on: not listed separately; assay: Metabolic stability in dog liver microsomes assessed as compound degradation measured after 30 mins; format: ADME, Canis lupus familiaris, Microsome; details: read-out: Drug degradation

metabolised at 0.5 h	SMILES
0%	OC[C@H]1CCN1c1nc(-c2cnn(C3CNC3)c2)cc(C(F)(F)F)n1
16%	C[C@H]1CCN1c1nc(-c2cnn(CC(=O)N(CCO)CCO)c2)cc(C(F)(F)F)c1C#N

tested on: not listed separately; assay: Cmax in rat at 1 mg/kg, iv measured after 12 hrs; format: ADME, organism-based; parameters: dose 1 mg/kg, time 12 hrs, route iv; details: in vivo

Cmax	SMILES
1050 nM	OC[C@H]1CCN1c1nc(-c2cnn(C3CNC3)c2)cc(C(F)(F)F)n1
2940 nM	C[C@H]1CCN1c1nc(-c2cnn(CC(=O)N(CCO)CCO)c2)cc(C(F)(F)F)c1C#N

tested on: not listed separately; assay: Inhibition of mouse KHK-C; details: not given

IC50	SMILES
32 nM	OC[C@H]1CCN1c1nc(-c2cnn(C3CNC3)c2)cc(C(F)(F)F)n1
35 nM	C[C@H]1CCN1c1nc(-c2cnn(CC(=O)N(CCO)CCO)c2)cc(C(F)(F)F)c1C#N
